Reference: paper PMC8007111, “Novel Potent Muscarinic Receptor Antagonists: Investigation on the Nature of Lipophilic Substituents in the 5- and/or 6-Positions of the 1,4-Dioxane Nucleus” (Journal of Medicinal Chemistry, 2020)

What was measured:
hM5 mAChR = target: T1, hM5 mAChR (Homo sapiens, UniProt P08912); assay: [3H]NMS inhibition radioligand binding, hM5 in CHO-K1 cell membranes; conditions: [3H]NMS, CHO-K1 cell membranes; mean ± S.E.M.
T1 construct: expressed in transfected cells; host or cells: CHO-K1 (membrane preparation)
T1 sequence (P08912 1-532): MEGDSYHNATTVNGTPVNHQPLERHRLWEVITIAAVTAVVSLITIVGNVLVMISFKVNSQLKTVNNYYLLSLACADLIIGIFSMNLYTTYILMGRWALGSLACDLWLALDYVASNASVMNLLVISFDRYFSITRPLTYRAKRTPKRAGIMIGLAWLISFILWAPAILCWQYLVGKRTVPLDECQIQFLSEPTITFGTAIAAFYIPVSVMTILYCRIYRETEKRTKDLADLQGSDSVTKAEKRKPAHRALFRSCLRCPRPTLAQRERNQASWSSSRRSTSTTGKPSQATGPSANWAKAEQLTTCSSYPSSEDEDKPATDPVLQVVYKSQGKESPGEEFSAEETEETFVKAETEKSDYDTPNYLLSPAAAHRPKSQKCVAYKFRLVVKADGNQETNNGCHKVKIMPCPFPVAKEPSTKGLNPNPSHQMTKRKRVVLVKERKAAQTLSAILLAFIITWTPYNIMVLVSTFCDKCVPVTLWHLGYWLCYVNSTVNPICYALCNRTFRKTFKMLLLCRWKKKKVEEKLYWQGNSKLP

[1] = tested on: MSCs from mouse bone marrow; assay: MSC viability (MTS assay), dose-response; assay type: cell-based; conditions: 24 h
Experimental: It is well established that bone marrow MSC behavior is influenced by a variety of signaling systems. In context, cholinergic intramural stimuli and, in particular, muscarinic signals orchestrate MSCs viability and commitment.[11],[12] Considering also the pluripotent MSC nature and their contribution to bone, blood, and systemic homeostasis,[53] viability studies on MSCs were performed to determine the functional profile of 3b, the most interesting compound in this series. […] Successively, the efficacy of 3b in contrasting cell viability induced by the well-known mAChR agonist carbachol was evaluated. […] Further research on the intracellular mechanistic outcomes of 3b on MSCs remains mandatory.
The in vitro studies were performed by using bone marrow MSCs as a model. […] After 2 weeks of initiating culture, cells were washed with PBS, detached by trypsinization, counted, and plated at the density of 5,000 cells/well in 96 culture plates (Costar Corp., Milano, Italy) in DMEM containing 10% HIFCS, penicillin, and streptomycin.
MSCs were treated with compound 3b (from 10^–4 to 10^–10 M) for 24 h. […] At the end of each procedure, the MSCs viability was measured by MTS assay. […] The quantity of the formazan product was directly proportional to the number of living cells in culture. The colored formazan was measured by reading the absorbance at 490 nm using a […] plate reader.

C[N+](C)(C)C[C@@H]1COC[C@](c2ccccc2)(C2CCCCC2)O1.[I-] (relative stereo) [3b, 1-((2R*,6R*)-6-Cyclohexyl-6-phenyl-1,4-dioxan-2-yl)-N,N,N-trimethylmethanaminium Iodide]
pKi hM5 (hM5 mAChR): 8.41 ± 0.1
effect on MSCs viability ([1]; high concentration (10^–4 M)): down-regulate MSCs viability
effect on MSCs viability ([1]; low concentration (10^–10 M)): increased cell viability
